Experimental data reported in PubChem BioAssay AID256 (DTP/NCI, 2004).
Inconclusive results and toxic doses are left out. How the source made its calls: active means survival T/C of 150% or more; inactive means T/C below 125% in these data.

System: CD2F1 mice, L1210 leukemia ip, survival T/C
Test: NCI In Vivo Anticancer Drug Screen. Data for tumor model L1210 Leukemia (intraperitoneal) in CD2F1 (CDF1) mice
Details: endpoint: mean survival time, vehicle: saline with Tween-80, higher = longer survival
Outline: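 In this screen, transplantable tumors were grown in mice given either the compound or its vehicle. Results were expressed as the treated measurement relative to the control measurement.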

[1] = dose: 100.0 mg/kg/injection, schedule: Q04DX003 (ip)
[2] = dose: 200.0 mg/kg/injection, schedule: Q04DX003 (ip)
[3] = dose: 400.0 mg/kg/injection, schedule: Q04DX003 (ip)

Measured: T/C

Nc1ccc2cc3ccccc3cc2c1
inactive: dose: 12.5 mg/kg/injection, schedule: Q01DX009 (ip) 104 % of control | dose: 25.0 mg/kg/injection, schedule: Q01DX009 (ip) 104 % of control | dose: 50.0 mg/kg/injection, schedule: Q01DX009 (ip) 95 % of control | [1] 109 % of control | [2] 111 % of control | [3] 94 % of control

CN(CC(=O)O)C(=S)c1ccccc1
inactive: [1] 98 % of control | [2] 104 % of control | [3] 95 % of control
